Square brackets hold non-standard residues; d marks the D form. Ends that are not written are not given here. Nle = CCCC[C@H](N)C(=O)O; Orn = NCCC[C@H](N)C(=O)O
What was measured:
Type in all cases: cell-based
E. faecalis = test: killing of bacteria at fixed peptide concentration, E. faecalis (Example 12); conditions: peptide 25 μg/ml
Protocol: (§1) In this example, the peptides according to the invention were used to study the effect on the killing of different bacteria.
(§2) The peptides were used at a concentration of 25 μg/ml.

P. aeruginosa = test: killing of bacteria at fixed peptide concentration, P. aeruginosa (Example 12); conditions: peptide 25 μg/ml
Protocol: as §1, §2

S. aureus [1] = test: killing of bacteria at fixed peptide concentration, S. aureus (Example 12); conditions: peptide 25 μg/ml
Protocol: as §1, §2

S. epidermis = test: killing of bacteria at fixed peptide concentration, S. epidermis (Example 12); conditions: peptide 25 μg/ml
Protocol: as §1, §2

K. pneumoniae = test: killing of bacteria at fixed peptide concentration, K. pneumoniae (Example 12); conditions: peptide 25 μg/ml
Protocol: as §1, §2

[2] = system: C. albicans yeast cells (ATCC64549); test: killing and growth inhibition of C. albicans at pH 4.5 (Example 11); set-up: key to C. albicans inhibition (OD650): + = no increase in OD650 is seen; − = OD650 continues to increase; conditions: pH 4.5, 1% BHI, 25 μg/ml of the peptide; for C. albicans inhibition (OD650): OD650 after an additional 18 hours; for C. albicans killing: 99% / C. albicans killing: 100%: 2 hours
Protocol: C. albicans yeast cells (ATCC64549) were incubated for 2 hours at pH 4.5 in BHI medium diluted to 1% of the original concentration containing 25 µg/ml of the peptide. Thereafter the fungal solutions were cultured on blood agar plates. OD650 was measured after incubation during an additional 18 hours. The fungicidal effect of the peptides on C. albicans was determined as the ability of the peptide to kill 100% and 99%, respectively, of the fungus, while the growth inhibitory effect was determined by measuring the OD650. An inhibitory effect existed when no increase in OD650 was recorded.

C. albicans = test: MMC99% of modified peptides, C. albicans (Example 25); conditions: BHI diluted 1/100, pH approximately 6.7-6.9 (Table 21)
Protocol: (§3) In the examples, the minimal microbicidal concentrations (MMC) and minimal inhibitory concentrations (MIC) were determined as follows, unless otherwise specified in the examples. Bacterial or fungal strains were cultured in BHI medium over night at 37° C. A volume of the culture was transferred to a new tube with BHI and incubated for two more hours. Thereafter the cells were spun down and the pellet was suspended in BHI medium diluted 1/100 (1% BHI). The concentration of bacterial or fungal cells was spectrophotometrically determined at 650 nm. The microbial concentrations were also determined by viable counts. Peptides serially diluted in 1% BHI by twofold or tenfold steps were added in triplicate to the wells of a microtiterplate (200 μl per well). The bacterial or fungal cell solutions were added in 10 μl volumes to give a final concentration of approximately 1-5×10^5 cells per ml in the well. The microplate was incubated at 37° C. in a humid chamber for two hours. Thereafter 5 μl was taken from each well and added as a drop onto a blood agar plate and incubated over night at 37° C. The microplate was incubated for another 20 hours at 37° C. and thereafter analysed spectrophotometrically at 650 nm in a microplate reader (Emax, Molecular Devices, USA). The concentration of peptide causing a 99% reduction of the inoculum after 2 hours of incubation was defined as the MMC99%. The MIC value was defined as the concentration giving no increase in the absorbance value above the background level after 20 hours of incubation.
(§4) In this example the fungicidal, and bactericidal effects of the different peptides obtained in examples 18-21 were studied. C. albicans, E. coli and S. aureus, respectively, were incubated in BHI medium diluted 1/100, with a pH of approximately 6.7-6.9. The concentration of each peptide needed to kill 99% of the microorganisms (MMC99%) was determined.

S. aureus [3] = test: MMC99% of modified peptides, S. aureus (Example 25); conditions: BHI diluted 1/100, pH approximately 6.7-6.9 (Table 21)
Protocol: as §3, §4

E. coli = test: MMC99% of modified peptides, E. coli (Example 25); conditions: BHI diluted 1/100, pH approximately 6.7-6.9 (Table 21)
Protocol: as §3, §4

C. albicans (ATCC64549) = conditions: for MIC: ATCC64549; for MMC99%: C. albicans, tested at 1, 10, 25 and 100 μg/ml of peptide
Protocol: as §3
(§5) C. albicans (ATCC64549) and E. coli O6, respectively, were incubated with the different peptides. The experiments were performed with 1, 10, 25 and 100 μg/ml of peptide.

E. coli O6 = conditions: for MMC99%: E. coli O6, tested at 1, 10, 25 and 100 μg/ml of peptide; for MIC: O6
Protocol: as §3, §5

Substance | MMC99% (C. albicans) | MMC99% (S. aureus [3]) | MMC99% (E. coli) | other results
Peptide 6: SEQ. ID. NO. 1 with X1 none, X2 none, X5 A, X7 K, X11 D, X17-25 none; 14 residues (Ac-TKAFKWQRDMRKVR) |  |  |  | killing of bacteria: E. faecalis (E. faecalis): + (+ = 99% of the bacteria are killed); killing of bacteria: P. aeruginosa (P. aeruginosa): + (+ = 99% of the bacteria are killed); killing of bacteria: S. aureus (S. aureus [1]): + (+ = 99% of the bacteria are killed); killing of bacteria: S. epidermis (S. epidermis): + (+ = 99% of the bacteria are killed); killing of bacteria: K. pneumoniae (K. pneumoniae): + (+ = 99% of the bacteria are killed); C. albicans inhibition (OD650) [2]: −; C. albicans killing: 99% [2]: + (+ = 100/99% of the bacteria are killed); C. albicans killing: 100% [2]: − (− = less than 100/99% of the bacteria are killed)
C-F-Q-W-Q-R-N-M-A-K-V-R (CFQWQRNMAKVR) [SEQ. ID. NO. 76] | 25 | 7 | 25 | 
Ac-TKCFQWQRNMRKVR-NH2 [Peptide 51] |  |  |  | killing of bacteria: E. faecalis (E. faecalis): + (+ = 99% of the bacteria are killed); killing of bacteria: P. aeruginosa (P. aeruginosa): + (+ = 99% of the bacteria are killed); killing of bacteria: S. aureus (S. aureus [1]): + (+ = 99% of the bacteria are killed); killing of bacteria: S. epidermis (S. epidermis): + (+ = 99% of the bacteria are killed); killing of bacteria: K. pneumoniae (K. pneumoniae): + (+ = 99% of the bacteria are killed); C. albicans inhibition (OD650) [2]: +; C. albicans killing: 99% [2]: + (+ = 100/99% of the bacteria are killed); C. albicans killing: 100% [2]: + (+ = 100/99% of the bacteria are killed); MIC (C. albicans (ATCC64549)): 10 µg/mL; MMC99% (C. albicans (ATCC64549)): 10 µg/mL; MMC99% (E. coli O6): 10 µg/mL; MIC (E. coli O6): 10 µg/mL
C-F-Q-A-Q-R-N-M-R-K-V-R (CFQAQRNMRKVR) [SEQ. ID. NO. 71] | 12 | 14 | 25 | 
C-F-Q-W-Q-R-N-M-R-A-V-R (CFQWQRNMRAVR) [SEQ. ID. NO. 77] | 25 | 7 | 12 | 
C-F-Q-W-Q-R-A-M-R-K-V-R (CFQWQRAMRKVR) [SEQ. ID. NO. 74] | 6 | 3.5 | 6 | 
Peptide 66: third embodiment, comprises a cysteine; sequence only in sequence listing (PEATKCFQWQRNMRKVR) |  |  |  | killing of bacteria: E. faecalis (E. faecalis): + (+ = 99% of the bacteria are killed); killing of bacteria: P. aeruginosa (P. aeruginosa): − (− = less than 99% of the bacteria are killed); killing of bacteria: S. aureus (S. aureus [1]): + (+ = 99% of the bacteria are killed); killing of bacteria: S. epidermis (S. epidermis): + (+ = 99% of the bacteria are killed); killing of bacteria: K. pneumoniae (K. pneumoniae): − (− = less than 99% of the bacteria are killed); C. albicans inhibition (OD650) [2]: +; C. albicans killing: 99% [2]: + (+ = 100/99% of the bacteria are killed); C. albicans killing: 100% [2]: − (− = less than 100/99% of the bacteria are killed)
C-F-Q-W-Q-A-N-M-R-K-V-R (CFQWQANMRKVR) [SEQ. ID. NO. 73] | 12 | 7 | 12 | 
C-F-Q-W-E-R-N-M-R-K-V-R (CFQWERNMRKVR) [SEQ. ID. NO. 84] | 12 | 14 | 25 | 
Ac-ATKCFQWQRNMRKVR-NH2 (N-terminus and C-terminus assumed) [Peptide 63] |  |  |  | MIC (C. albicans (ATCC64549)): 10 µg/mL; MMC99% (C. albicans (ATCC64549)): 10 µg/mL; MMC99% (E. coli O6): 10 µg/mL; MIC (E. coli O6): 10 µg/mL
C-F-Q-W-Q-E-N-M-R-K-V-R (CFQWQENMRKVR) [SEQ. ID. NO. 85] | >50 | >28 | >25 | 
Peptide 62: third embodiment, comprises a cysteine; sequence only in sequence listing (ATKCFQWQRNMRKVR) |  |  |  | killing of bacteria: E. faecalis (E. faecalis): + (+ = 99% of the bacteria are killed); killing of bacteria: P. aeruginosa (P. aeruginosa): + (+ = 99% of the bacteria are killed); killing of bacteria: S. aureus (S. aureus [1]): + (+ = 99% of the bacteria are killed); killing of bacteria: S. epidermis (S. epidermis): + (+ = 99% of the bacteria are killed); killing of bacteria: K. pneumoniae (K. pneumoniae): + (+ = 99% of the bacteria are killed); C. albicans inhibition (OD650) [2]: +; C. albicans killing: 99% [2]: + (+ = 100/99% of the bacteria are killed); C. albicans killing: 100% [2]: − (− = less than 100/99% of the bacteria are killed)
C-F-Q-W-Q-R-N-M-K-K-V-R (CFQWQRNMKKVR) [SEQ. ID. NO. 83] | 6 | 7 | 6 | 
A-F-Q-W-Q-R-N-M-R-K-V-R (AFQWQRNMRKVR) [SEQ. ID. NO. 68] | 12 | 28 | >25 | 
C-A-Q-W-Q-R-N-M-R-K-V-R (CAQWQRNMRKVR) [SEQ. ID. NO. 69] | 12 | 14 | 12 | 
C-F-Q-W-Q-R-Nle-M-R-K-V-R (CFQWQR[Nle]MRKVR) [SEQ. ID. NO. 90] | 12 | 3.5 | 12 | 
C-F-Q-W-Q-R-N-A-R-K-V-R (CFQWQRNARKVR) [SEQ. ID. NO. 75] | 25 | 7 | 12 | 
C-F-Q-W-Q-R-N-M-R-K-A-R (CFQWQRNMRKAR) [SEQ. ID. NO. 78] | 25 | 7 | 12 | 
C-F-Q-W-Q-K-N-M-R-K-V-R (CFQWQKNMRKVR) [SEQ. ID. NO. 81] | 6 | 7 | 6 | 
C-F-Q-W-Q-R-N-L-R-K-V-R (CFQWQRNLRKVR) [SEQ. ID. NO. 82] | 6 | 7 | 12 | 
C-F-Q-W-Q-R-E-M-R-K-V-R (CFQWQREMRKVR) [SEQ. ID. NO. 86] | 25 | 14 | 25 | 
C-F-Q-L-Q-R-N-M-R-K-V-R (CFQLQRNMRKVR) [SEQ. ID. NO. 80] | 6 | 7 | 12 | 
Ac-PEATKCFQWQRNMRKVR-NH2 (N-terminus and C-terminus assumed) [Peptide 67] |  |  |  | MIC (C. albicans (ATCC64549)): 10 µg/mL; MMC99% (C. albicans (ATCC64549)): 10 µg/mL; MMC99% (E. coli O6): 10 µg/mL; MIC (E. coli O6): 10 µg/mL
C-F-Q-W-A-R-N-M-R-K-V-R (CFQWARNMRKVR) [SEQ. ID. NO. 72] | 12 | 7 | 12 | 
C-F-Q-W-Q-R-N-M-R-K-V-A (CFQWQRNMRKVA) [SEQ. ID. NO. 79] | 25 | 7 | 12 | 
C-F-A-W-Q-R-N-M-R-K-V-R (CFAWQRNMRKVR) [SEQ. ID. NO. 70] | 6 | 7 | 6 | 
Ac-TKAFKWQRDMRKVR-NH2 (N-terminus and C-terminus assumed) [Peptide 53] |  |  |  | MIC (C. albicans (ATCC64549)): 10 µg/mL; MMC99% (C. albicans (ATCC64549)): 10 µg/mL; MMC99% (E. coli O6): 10 µg/mL; MIC (E. coli O6): 10 µg/mL
C-F-Q-W-Q-R-Orn-M-R-K-V-R (CFQWQR[Orn]MRKVR) [SEQ. ID. NO. 89] | 6 | 3.5 | 6 | 
